According to publication PMC12320299 (Chemical Science, 2025):

Assays:
[1] = Reactivity by NMR with 9-ethylguanine and methionine or cysteine; type: physicochemical; details: 1 mM, equimolar nucleophiles, D2O/20% DMSO, up to 24 h
Method: Nevertheless, they are activated by hydrolysis of the most labile M–O bond (Fig. 2C).[48] Further hydrolysis releases the NQ ligand, because the free hemiaminal-containing NQ is unstable and the presence of biological nucleophiles accelerated NQ release.[48] […] The samples were analysed on a 500 MHz NMR spectrometer after 0 h, 1.5 h and 24 h. […] The aromatic proton of 9-ethylguanine was consistently found at 7.6 ppm.

[2] = tested on: HCT116 TP53-knockout (TP53KO) cell line; experiment: MTT viability assay, HCT116 TP53-knockout, 96 h; type: cell-based, human
Method: removed and 100 µL DMSO was added to dissolve the formazan crystals. Photometric quantification was performed at 570 nm with a Multiskan Go 1510 photometer (Thermo Fisher […]
The absorbances were blank corrected and converted to relative proliferation. The IC50 values (concentration of 50% growth inhibition) were obtained using a sigmoidal fit of the experimental data and calculated as the mean ± standard deviation of at least three independent experiments, each in at least triplicates.
HCT116, HCT116 p53KO (each 2.000 cells/well) and CT-26 cells (500 cells/well) were seeded in 100 µL/well into flat-bottom 96-well plates (Starlab) and incubated at 37 °C for 96 h in a humidified incubator (Binder CB210) at 5% CO2. The test compound was dissolved in DMSO, serially diluted in the appropriate cell culture medium (see section above) to final DMSO concentrations of ≤0.5% v/v and 100 µL aliquots added to wells in triplicates. […] Optical densities were measured with a microplate reader (ELx808, Biotek) at a wavelength of 550 nm (and a reference wavelength of 690 nm) and blank corrected. […]
(each 3.000 cells/well) were seeded in 100 µL/well into flat-bottom 96-well plates (Starlab) and incubated at 37 °C for 24 h in a humidified incubator (Binder CB210) at 5% CO2. […] After 24 h of treatment, plates were measured by MTT assay as described above. […]

[3] = Tissue and plasma proteome profiling of 1a-treated CT26-bearing mice; type: in vivo, BALB/c mice; details: 10 mg kg^−1, five days
Source text: On day five, tumour, liver and blood were harvested two hours after the last injection of 1a. Blood plasma and livers were harvested to obtain insight into systemic drug effects and tumours were collected to obtain information about local effects of the candidate drug.
For proteomic workup, the fresh tissue samples were quickly rinsed with PBS and shock-frozen in liquid nitrogen. Blood plasma was immediately prepared by centrifugation of the collected blood in ethylenediaminetetraacetic acid (EDTA) tubes. The samples were analysed in technical duplicates due to the expected larger heterogeneity and statistical evaluation was performed using the LIMMA algorithm[73] and gene set variation analysis (GSVA).[74] […] Statistical significance was calculated based on multi-parameter testing-adjusted P-values […].
Animals. All experiments were carried out with male Balb/c mice according to the regulation of the Ethics Committee for the Care and Use of Laboratory Animals at the Medical University Vienna (BMWF-2022-0.770.291), the guidelines from the Austrian Animal Science Association and the Federation of European Laboratory Animal Science Associations (FELASA). The animals were kept in a pathogen-free conditions, controlled environment with 12 h light–dark cycle with ad libitum access to food and water. Every procedure was done in a laminar airflow […]
Treatment. CT-26 cells ([…] in 50 μL serum-free medium) were injected subcutaneously (s.c.) into the right flank of ten– to eleven-week-old male Balb/c mice. Three days after cell injection, all compounds (dissolved in 10% DMSO in water) were administered […]
In case of the proteomic profiling […]
in water for 5 consecutive days. On the last day, 2 h after the last treatment, mice were euthanized, and blood was collected in an EDTA tube via heart punctation. Tumours and livers were harvested, quickly rinsed with PBS and snap-frozen in liquid nitrogen. Blood plasma was obtained by centrifugation (2×10 min at 900 g). […]
Sample Processing. All steps were performed on ice. The frozen tissue samples (weights ranging from 8.6– 51.5 mg) were transferred to 15 mL Falcon tubes containing 150 µL sodium deoxycholate lysis buffer (SDC; 0.4 g SDC, 500 μL Tris∙HCl (pH 8.8) in 9.5 mL H2O) and homogenized with a sonication probe (Bandelin Sonoplus HD 2070; Bandelin Electronic GmbH & Co. KG, Berlin, Germany). After sonication the homogenates were centrifuged at 10.000 g for 5 minutes and the resulting supernatant was transferred to new reaction tubes. […]
EDTA-anticoagulated plasma samples were diluted in SDC buffer at a ratio of 1 : 20, heated at 95 °C for 5 min and stored at –20 °C. The protein concentration of each sample was determined using a BCA assay. […]

CCC1=C2[O][Ru][O]C2(n2cccn2)c2ccccc2C1=O.Cc1ccc(C(C)C)cc1 (stereo not drawn) [Compound 1a, [(3-ethyl-4-oxo-(pyrazolyl)-dihydronaphthalene)(cymene)ruthenium(II)]]
stability by NMR [1]: remained remarkably stable
IC50 [2]: 0.26 ± 0.01 µM
EGFR level in tumour [3]: down-regulated
statistically significant regulations, plasma ([3]; of 285 identified): 79
statistically significantly regulated proteins, liver ([3]; of 2770 identified): 14
statistically significant regulations, tumour ([3]; of 3867 identified): 5
